According to patent US10577395B2 (priority 2014, dated 2020):
≈ marks a conversion by molar mass, not a printed value. Read-outs that look alike come from different tables or passages of the source.

Key:
[1] = system: Enterococcus faecium (VanA VRE, ATCC BAA-2317); test: Antimicrobial assay, MIC, VanA E. faecium; format: cell-based; conditions: for MIC: Enterococcus faecium
Procedure: (§1) Assays were carried out following the methods of Clinical and Laboratory Standards Institute; Methods for Dilution Antimicrobial Susceptibility Tests for Bacteria That Grow Aerobically; Approved Standard, […].; CLSI document M07-A8; Clinical and Laboratory Standards Institute: Wayne, Pa., 2009.
(§2) This diluted bacterial stock solution was then inoculated into a well of a V-shaped 96-well glass coated microtiter plate, supplemented with serial diluted aliquots of the antibiotic solution DMSO (4 μL), to achieve a total assay volume of 0.1 mL. The plate was then incubated at 37° C. for 18 hours, after which minimal inhibitory concentrations (MICs) were determined by monitoring the cell growth (observed as a pellet) in the wells. The lowest concentration of antibiotic (in μg/mL) capable of eliminating the cell growth in the wells is reported as the MIC.

[2] = system: vancomycin-resistant Enterococcus faecalis (VanB VRE, strain ATCC 51299); test: microbe, parasite or virus in culture; format: cell-based; conditions: for MIC: Enterococcus faecalis
Procedure: as §1, §2

[3] = system: vancomycin-resistant Enterococcus faecalis (VanA VRE, BM4166); test: microbe, parasite or virus in culture; format: cell-based; conditions: for MIC: Enterococcus faecalis, VRE
Procedure: as §1, §2

[4] = system: vancomycin-sensitive Staphylococcus aureus (VSSA strain ATCC 25923); test: Antimicrobial assay, MIC, vancomycin-sensitive S. aureus; format: cell-based; conditions: ATCC 25923; for MIC: Staphylococcus aureus
Procedure: as §1, §2

[5] = system: methicillin and oxacillin-resistant Staphylococcus aureus subsp. aureus (MRSA strain ATCC 43300); test: Antimicrobial assay, MIC, MRSA; format: cell-based; conditions: for MIC: Staphylococcus aureus
Procedure: as §1, §2

[6] = system: panel of Gram-positive bacteria (VSSA, MRSA, VanA and VanB VRE); test: Antimicrobial assay, MIC across the bacterial panel; format: cell-based, S. aureus, E. faecalis, E. faecium; conditions: Staphylococcus aureus, read-out: MICs across the bacterial panel, vancomycin-sensitive and vancomycin-resistant strains
Procedure: as §1, §2

VanA VRE = test: Antimicrobial assay, MIC for VanA VRE; format: cell-based, E. faecalis and E. faecium
Procedure: as §1, §2

[7] = read-out: MIC, VanB E. faecalis
[8] = read-out: MIC, VanA E. faecalis
[9] = ATCC25923, read-out: MIC, sensitive S. aureus
[10] = read-out: MIC, Van A E. faecium, serum concentration 10%
[11] = read-out: MIC, Van A E. faecium, serum concentration 25%
[12] = read-out: MIC, Van A E. faecium, serum concentration 100%
[13] = read-out: MIC, Van A E. faecalis, serum concentration 10%
[14] = read-out: MIC, Van A E. faecalis, serum concentration 25%
[15] = read-out: MIC, Van A E. faecalis, serum concentration 100%

| Compound | MIC ([1]; read-out: MIC, VanA E. faecium) [µg/mL] | MIC [2, 7] [µg/mL] | MIC [3, 8] [µg/mL] | MIC [4, 9] [µg/mL] | MIC ([5]; read-out: MIC, MRSA S. aureus) [µg/mL] | MIC, VanA E. faecium ([1]; ATCC BAA-2317) [µg/mL] | MIC, VanB E. faecalis ([2]; ATCC 51299) [µg/mL] | MIC, VanA E. faecalis ([3]; BM 4166) [µg/mL] | MIC, MRSA S. aureus ([5]; ATCC 43300) [µg/mL] | MIC [1, 10] [µg/mL] | MIC [1, 11] [µg/mL] | MIC [1, 12] [µg/mL] | MIC [3, 13] [µg/mL] | MIC [3, 14] [µg/mL] | MIC [3, 15] [µg/mL] | other results |
| --- | --- | --- | --- | --- | --- | --- | --- | --- | --- | --- | --- | --- | --- | --- | --- | --- |
| CN[C@H](CC(C)C)C(=O)N[C@H]1C(=O)N[C@@H](CC(N)=O)C(=O)N[C@H]2C(=S)NC3C(=O)N[C@H](C(=O)N[C@H](CO)c4cc(O)cc(O)c4-c4cc3ccc4O)[C@H](O)c3ccc(c(Cl)c3)Oc3cc2cc(c3OC2OC(CO)C(O)[C@H](O)[C@@H]2O[C@H]2CC(C)(N)[C@H](O)[C@H](C)O2)Oc2ccc(cc2Cl)[C@H]1O (some centres unmarked) [Compound 24] | > 32 | > 32 | > 32 | > 32 | > 32 | – | – | – | – | – | – | – | – | – | – | – |
| CN[C@H](CC(C)C)C(=O)N[C@H]1C(=O)N[C@@H](CC(N)=O)C(=O)N[C@H]2C(=O)NC3C(=O)N[C@H](C(=O)N[C@H](CO)c4cc(O)cc(O)c4-c4cc3ccc4O)[C@H](O)c3ccc(c(Cl)c3)Oc3cc2cc(c3OC2OC(CO)C(O)[C@H](O)[C@@H]2O[C@H]2CC(C)(N)[C@H](O)[C@H](C)O2)Oc2ccc(cc2Cl)[C@H]1O (some centres unmarked) [Compound 23, hydroxymethylvancomycin, reference compound] | – | – | – | – | – | 250 (≈ 174 µM) | 8 (≈ 5.57 µM) | 250 (≈ 174 µM) | 0.5 (≈ 0.348 µM) | – | – | – | – | – | – | MIC, sensitive S. aureus [4]: 0.5 µg/mL (≈ 0.348 µM) |
| CN[C@H](CC(C)C)C(=O)N[C@H]1C(=O)N[C@@H](CC(N)=O)C(=O)N[C@H]2C(=N)NC3C(=O)N[C@H](C(=O)N[C@H](CO)c4cc(O)cc(O)c4-c4cc3ccc4O)[C@H](O)c3ccc(c(Cl)c3)Oc3cc2cc(c3OC2OC(CO)C(O)[C@H](O)[C@@H]2O[C@H]2CC(C)(NCc3ccc(-c4ccc(Cl)cc4)cc3)[C@H](O)[C@H](C)O2)Oc2ccc(cc2Cl)[C@H]1O (some centres unmarked) [Compound 28] | 0.02 (≈ 0.0122 µM) | 0.06 (≈ 0.0367 µM) | 0.02 (≈ 0.0122 µM) | 0.13 (≈ 0.0795 µM) | 0.13 (≈ 0.0795 µM) | – | – | – | – | – | – | – | – | – | – | – |
| CN[C@H](CC(C)C)C(=O)N[C@H]1C(=O)N[C@@H](CC(N)=O)C(=O)N[C@H]2C(=S)NC3C(=O)N[C@H](C(=O)N[C@H](C(=O)O)c4cc(O)cc(O)c4-c4cc3ccc4O)[C@H](O)c3ccc(c(Cl)c3)Oc3cc2cc(c3OC2OC(CO)C(O)[C@H](O)[C@@H]2O[C@H]2CC(C)(NCc3ccc(-c4ccc(Cl)cc4)cc3)[C@H](O)[C@H](C)O2)Oc2ccc(cc2Cl)[C@H]1O (some centres unmarked) [Compound 5, N-4-(4′-chlorobiphenyl)-methyl [Ψ[C(═S)NH]Tpg^4]vancomycin] | 4 (≈ 2.4 µM) | 2 (≈ 1.2 µM) | 4 (≈ 2.4 µM) | 2 (≈ 1.2 µM) | 2 (≈ 1.2 µM) | – | – | – | – | 4 (≈ 2.4 µM) | 4 (≈ 2.4 µM) | 8 (≈ 4.8 µM) | 4 (≈ 2.4 µM) | 4 (≈ 2.4 µM) | 8 (≈ 4.8 µM) | MIC ([2]; read-out: MIC, Van B E. faecalis, serum concentration 10%): 2 µg/mL (≈ 1.2 µM); MIC ([2]; read-out: MIC, Van B E. faecalis, serum concentration 25%): 2 µg/mL (≈ 1.2 µM); MIC ([2]; read-out: MIC, Van B E. faecalis, serum concentration 100%): 8 µg/mL (≈ 4.8 µM); MIC ([4]; ATCC25923, read-out: MIC, sensitive S. aureus, serum concentration 10%, 10%): 2 µg/mL (≈ 1.2 µM); MIC ([4]; ATCC25923, read-out: MIC, sensitive S. aureus, serum concentration 100%, 100%): 4 µg/mL (≈ 2.4 µM); MIC ([4]; ATCC25923, 25%, read-out: MIC, sensitive S. aureus, serum concentration 25%): 2 µg/mL (≈ 1.2 µM); MIC [6]: 2 to 4 µg/mL (≈ 1.2 to 2.4 µM); MIC ([5]; read-out: MIC, MRSA S. aureus, serum concentration 10%): 2 µg/mL (≈ 1.2 µM); MIC ([5]; read-out: MIC, MRSA S. aureus, serum concentration 25%): 4 µg/mL (≈ 2.4 µM); MIC ([5]; read-out: MIC, MRSA S. aureus, serum concentration 100%): 4 µg/mL (≈ 2.4 µM) |
| CBP-[Ψ[CH2NH]Tpg^4]vancomycin [Compound 17] | – | – | – | – | – | 0.06 | 0.5 | 0.13 | 0.25 | – | – | – | – | – | – | MIC, Van A E. faecium, serum concentration 10% ([1]; ATCC BAA-2317, 10%): 0.06 µg/mL; MIC, Van A E. faecium, serum concentration 25% ([1]; ATCC BAA-2317, 25%): 0.13 µg/mL; MIC, Van A E. faecium, serum concentration 100% ([1]; ATCC BAA-2317, 100%): 0.5 µg/mL; MIC, Van B E. faecalis, serum concentration 10% ([2]; ATCC 51299, 10%): 0.5 µg/mL; MIC, Van B E. faecalis, serum concentration 25% ([2]; ATCC 51299, 25%): 1 µg/mL; MIC, Van B E. faecalis, serum concentration 100% ([2]; ATCC 51299, 100%): 2 µg/mL; MIC, Van A E. faecalis, serum concentration 10% ([3]; BM 4166, 10%): 0.13 µg/mL; MIC, Van A E. faecalis, serum concentration 25% ([3]; BM 4166, 25%): 0.26 µg/mL; MIC, Van A E. faecalis, serum concentration 100% ([3]; BM 4166, 100%): 0.5 µg/mL; MIC, MRSA S. aureus, serum concentration 10% ([5]; ATCC 43300, 10%): 0.25 µg/mL; MIC, MRSA S. aureus, serum concentration 25% ([5]; ATCC 43300, 25%): 0.5 µg/mL; MIC, MRSA S. aureus, serum concentration 100% ([5]; ATCC 43300, 100%): 1 µg/mL; improvement in activity against VanA VRE on introduction of the (4-chlorobiphenyl)methyl group (VanA VRE; relative to the analogue without CBP group): 100 fold; MIC against VanA VRE (VanA VRE; stated for VanA VRE): 0.06 to 0.13 µg/mL |
| CN[C@H](CC(C)C)C(=O)N[C@H]1C(=O)N[C@@H](CC(N)=O)C(=O)N[C@H]2C(=N)NC3C(=O)N[C@H](C(=O)N[C@H](C(=O)O)c4cc(O)cc(O)c4-c4cc3ccc4O)[C@H](O)c3ccc(c(Cl)c3)Oc3cc2cc(c3OC2OC(CO)C(O)[C@H](O)[C@@H]2O[C@H]2CC(C)(N)[C@H](O)[C@H](C)O2)Oc2ccc(cc2Cl)[C@H]1O (some centres unmarked) [Compound 3, [Ψ[C(═NH)NH]Tpg^4]vancomycin] | 0.5 (≈ 0.345 µM) | – | 0.5 (≈ 0.345 µM) | – | – | – | – | – | – | 0.5 (≈ 0.345 µM) | 4 (≈ 2.76 µM) | > 32 | 0.5 (≈ 0.345 µM) | 8 (≈ 5.52 µM) | > 32 | – |
